Literature values, collected in US11369619B2, “Composition for curing migraine headaches” (priority 2014, dated 2022).

What was measured:
male mice = details: intravenous
migraine = details: topical administration
[1] = taken orally, dosages of several hundred milligrams per day

C[C@@H]1C[C@H]2[C@@H]3CCC4=CC(=O)C=C[C@]4(C)[C@@]3(F)[C@@H](O)C[C@]2(C)[C@@]1(O)C(=O)COP(=O)(O)O [dexamethasone sodium phosphate]
LD50 (male mice): 794 mg/kg

C[C@@H]1C[C@H]2[C@@H]3CCC4=CC(=O)C=C[C@]4(C)[C@@]3(F)[C@@H](O)C[C@]2(C)[C@@]1(O)C(=O)COP(=O)(O)O [Dexamethasone phosphate]
solubility in water: practically insoluble in water

CCN(CC)CC(=O)Nc1c(C)cccc1C [lidocaine]
patients in whom treatment was effective (migraine): about 55%

Cc1ncc(C[n+]2csc(CCO)c2C)c(N)n1 [thiamine]
adverse effects [1]: no reports of adverse effects
